US20260297085A1, “1 H-PYRROLO[2,3-B]PYRIDIN-4-YL]-2-OXOPYRROLIDINE-3-CARBONITRILE DERIVATIVES AS TYROSINE KINASE 2 (TYK2) INHIBITORS FOR THE TREATMENT OF INFLAMMATORY DISEASES” (BIOGEN MA INC., priority 2023, published 2026)
Counter-ions that a name gives are not always drawn.

Tests used:
[1] = target: Tyk2 kinase activity on STAT4 in NK92 cells (Homo sapiens, UniProt P29597); assay: pSTAT4 cell assay (MSD; NK92 cells, 30 ng/mL IL2 stimulation); assay type: cell-based; conditions: 30 ng/mL IL2, 15 minutes
Outline: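 Cells natively expressing STAT4 and Tyk2 (NK92) are serum-starved to lower background phosphorylation, exposed to compound for 1 hr over a 10-point four-fold series starting at 10 μM, and stimulated with 30 ng/mL IL2 for 15 minutes. Phosphorylation is quantified on MSD with anti-STAT4 antibodies.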

[2] = target: JAK2 kinase activity on STAT5 in TF1 cells (Homo sapiens, UniProt O60674); assay: pSTAT5 cell assay (MSD; TF1 cells, 30 ng/mL IL-3 stimulation); assay type: cell-based; conditions: 30 ng/mL IL-3, 15 minutes
Outline: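 IC50 from a 4-parameter logistic fit of normalized pSTAT5 signal, measured by MSD in lysates of TF1 cells. Cells were serum-starved, exposed to compound for 1 h (top concentration 10 μM, four-fold, 10 points), then given IL-3 at 30 ng/mL for 15 min.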

[3] = target: T1, human TYK2 kinase domain (JH1) (Homo sapiens, UniProt P29597); assay: JH1 biochemical assay for TYK2 (ADP-Glo kinase assay, recombinant JH1 catalytic domain, JAK3-974 peptide, 10 μM ATP); conditions: TYK2 JH1, ADP-Glo
T1 construct: recombinantly generated catalytic kinase (also known as JH1) domain of human JAK1, JAK2, JAK3 and TYK2
T1 sequence (P29597 897-1176 limits assumed): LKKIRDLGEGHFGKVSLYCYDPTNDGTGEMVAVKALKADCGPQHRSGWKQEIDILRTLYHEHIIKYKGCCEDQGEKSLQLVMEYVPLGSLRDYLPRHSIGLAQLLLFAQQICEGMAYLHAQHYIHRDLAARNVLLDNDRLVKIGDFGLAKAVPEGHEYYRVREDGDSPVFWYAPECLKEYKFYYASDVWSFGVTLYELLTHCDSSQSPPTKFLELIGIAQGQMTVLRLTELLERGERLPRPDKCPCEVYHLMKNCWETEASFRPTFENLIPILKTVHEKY
Outline: (§1)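 Luminescent ADP read-out after residual ATP depletion, 100 min reaction. Kinase domain concentrations were 4 nM (JAK1), 0.2 nM (JAK2), 0.3 nM (JAK3) and 2 nM (TYK2), each with 50 μM peptide. IC50 values came from 4-parameter logistic fits over 11 points, 3-fold steps, top 10 μM or 1 μM.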

[4] = target: T2, human JAK1 kinase domain (JH1) (Homo sapiens, UniProt P23458); assay: JH1 biochemical assay for JAK1 (ADP-Glo kinase assay, recombinant JH1 catalytic domain, JAK3-342 peptide, 35 μM ATP); conditions: JAK1 JH1, ADP-Glo
T2 construct: recombinantly generated catalytic kinase (also known as JH1) domain of human JAK1, JAK2, JAK3 and TYK2
Outline: as §1

[5] = target: JAK1 kinase activity on STAT3 in TF1 cells (Homo sapiens, UniProt P23458); assay: pSTAT3 cell assay (MSD; TF1 cells, 30 ng/mL IL-6 stimulation); assay type: cell-based; conditions: 30 ng/mL IL-6, 15 minutes
Outline: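 IC50 values derive from 4-parameter logistic fits of normalized pSTAT3 signal, measured by MSD with anti-STAT3 antibodies. TF1 cells, serum-starved beforehand, received compound for 1 hour (top concentration 10 μM, four-fold steps, 10 points) before a 15-minute IL-6 (30 ng/mL) stimulus.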

[6] = target: T3, human JAK2 kinase domain (JH1) (Homo sapiens, UniProt O60674); assay: JH1 biochemical assay for JAK2 (ADP-Glo kinase assay, recombinant JH1 catalytic domain, JAK3-974 peptide, 15 μM ATP); conditions: JAK2 JH1, ADP-Glo
T3 construct: recombinantly generated catalytic kinase (also known as JH1) domain of human JAK1, JAK2, JAK3 and TYK2
Outline: as §1

[7] = target: T4, human JAK3 kinase domain (JH1) (Homo sapiens, UniProt P52333); assay: JH1 biochemical assay for JAK3 (ADP-Glo kinase assay, recombinant JH1 catalytic domain, JAK3-974 peptide, 4 μM ATP); conditions: JAK3 JH1, ADP-Glo
T4 construct: recombinantly generated catalytic kinase (also known as JH1) domain of human JAK1, JAK2, JAK3 and TYK2
Outline: as §1

T3 sequence (O60674 849-1124 limits assumed): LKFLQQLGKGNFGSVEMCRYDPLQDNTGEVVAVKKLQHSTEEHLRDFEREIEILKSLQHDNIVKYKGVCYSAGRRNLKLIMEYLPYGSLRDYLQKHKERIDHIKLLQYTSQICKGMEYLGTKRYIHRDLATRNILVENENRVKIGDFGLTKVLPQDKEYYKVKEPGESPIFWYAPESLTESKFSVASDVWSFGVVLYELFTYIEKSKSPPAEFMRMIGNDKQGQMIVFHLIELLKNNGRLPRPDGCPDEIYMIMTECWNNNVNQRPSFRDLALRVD
JAK1 kinase activity on STAT3 in TF1 cells, sequence (P23458 whole entry): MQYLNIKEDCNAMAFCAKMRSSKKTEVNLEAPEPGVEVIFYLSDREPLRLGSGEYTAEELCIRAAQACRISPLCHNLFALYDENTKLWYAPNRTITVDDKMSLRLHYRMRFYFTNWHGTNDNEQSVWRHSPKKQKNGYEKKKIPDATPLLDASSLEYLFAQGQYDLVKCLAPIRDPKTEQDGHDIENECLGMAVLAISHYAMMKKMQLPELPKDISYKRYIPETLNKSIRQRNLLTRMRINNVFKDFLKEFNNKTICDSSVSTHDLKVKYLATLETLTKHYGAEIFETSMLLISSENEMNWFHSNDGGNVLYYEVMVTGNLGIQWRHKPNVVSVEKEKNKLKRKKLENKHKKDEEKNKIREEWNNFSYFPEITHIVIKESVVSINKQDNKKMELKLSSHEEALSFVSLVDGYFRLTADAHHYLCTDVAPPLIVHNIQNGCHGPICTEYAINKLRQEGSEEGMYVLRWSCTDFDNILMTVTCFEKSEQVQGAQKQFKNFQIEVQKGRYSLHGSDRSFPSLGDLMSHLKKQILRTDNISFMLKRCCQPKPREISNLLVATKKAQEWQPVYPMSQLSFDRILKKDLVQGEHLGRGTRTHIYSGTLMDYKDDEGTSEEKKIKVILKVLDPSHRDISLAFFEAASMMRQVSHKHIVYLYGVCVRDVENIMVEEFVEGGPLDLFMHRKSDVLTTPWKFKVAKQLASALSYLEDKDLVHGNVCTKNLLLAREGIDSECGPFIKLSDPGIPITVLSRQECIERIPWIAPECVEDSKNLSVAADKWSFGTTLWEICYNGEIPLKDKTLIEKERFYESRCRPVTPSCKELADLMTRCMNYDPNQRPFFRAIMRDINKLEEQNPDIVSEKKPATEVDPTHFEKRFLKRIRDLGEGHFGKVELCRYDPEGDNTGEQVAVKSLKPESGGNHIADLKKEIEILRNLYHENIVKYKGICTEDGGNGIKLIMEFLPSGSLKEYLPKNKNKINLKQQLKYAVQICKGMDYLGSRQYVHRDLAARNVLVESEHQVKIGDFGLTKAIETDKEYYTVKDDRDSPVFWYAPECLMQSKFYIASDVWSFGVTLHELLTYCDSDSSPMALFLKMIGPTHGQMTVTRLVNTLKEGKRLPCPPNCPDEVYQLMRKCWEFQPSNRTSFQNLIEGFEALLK
T2 sequence (P23458 875-1153 limits assumed): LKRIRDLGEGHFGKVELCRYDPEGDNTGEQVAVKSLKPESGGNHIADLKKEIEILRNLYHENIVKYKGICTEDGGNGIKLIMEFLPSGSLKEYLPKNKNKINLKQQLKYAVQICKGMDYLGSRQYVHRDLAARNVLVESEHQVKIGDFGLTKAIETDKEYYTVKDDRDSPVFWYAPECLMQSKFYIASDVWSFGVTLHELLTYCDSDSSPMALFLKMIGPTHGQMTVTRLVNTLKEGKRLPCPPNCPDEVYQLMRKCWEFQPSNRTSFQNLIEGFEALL
JAK2 kinase activity on STAT5 in TF1 cells, sequence (O60674 whole entry): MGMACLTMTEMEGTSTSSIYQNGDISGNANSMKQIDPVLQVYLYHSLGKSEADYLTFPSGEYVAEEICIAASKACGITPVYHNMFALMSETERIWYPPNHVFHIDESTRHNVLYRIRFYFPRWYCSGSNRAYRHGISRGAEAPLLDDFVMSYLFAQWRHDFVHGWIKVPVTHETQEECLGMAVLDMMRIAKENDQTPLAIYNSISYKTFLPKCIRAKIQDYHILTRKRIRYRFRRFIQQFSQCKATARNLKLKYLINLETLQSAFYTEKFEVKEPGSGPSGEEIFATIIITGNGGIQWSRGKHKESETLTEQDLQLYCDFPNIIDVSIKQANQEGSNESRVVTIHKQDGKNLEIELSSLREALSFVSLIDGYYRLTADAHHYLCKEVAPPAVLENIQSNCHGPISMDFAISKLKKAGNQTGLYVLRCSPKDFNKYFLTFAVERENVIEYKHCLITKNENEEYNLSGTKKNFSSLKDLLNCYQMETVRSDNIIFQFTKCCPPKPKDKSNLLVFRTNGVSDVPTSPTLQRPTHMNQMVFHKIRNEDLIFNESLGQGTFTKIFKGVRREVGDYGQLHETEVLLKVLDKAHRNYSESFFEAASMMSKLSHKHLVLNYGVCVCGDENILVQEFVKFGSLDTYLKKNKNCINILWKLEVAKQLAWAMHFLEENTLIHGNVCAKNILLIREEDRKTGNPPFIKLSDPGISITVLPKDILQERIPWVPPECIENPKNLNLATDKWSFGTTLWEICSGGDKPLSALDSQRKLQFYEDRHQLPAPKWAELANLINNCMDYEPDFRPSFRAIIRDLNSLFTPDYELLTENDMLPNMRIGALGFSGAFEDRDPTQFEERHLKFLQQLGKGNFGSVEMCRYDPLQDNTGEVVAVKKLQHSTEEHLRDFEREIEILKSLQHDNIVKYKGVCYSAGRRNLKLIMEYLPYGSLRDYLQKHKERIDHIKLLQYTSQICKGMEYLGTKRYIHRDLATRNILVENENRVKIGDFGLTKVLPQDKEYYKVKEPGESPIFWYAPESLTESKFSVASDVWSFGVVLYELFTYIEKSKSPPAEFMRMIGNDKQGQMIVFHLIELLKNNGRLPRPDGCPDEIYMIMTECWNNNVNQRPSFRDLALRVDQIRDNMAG
T4 sequence (P52333 822-1111 limits assumed): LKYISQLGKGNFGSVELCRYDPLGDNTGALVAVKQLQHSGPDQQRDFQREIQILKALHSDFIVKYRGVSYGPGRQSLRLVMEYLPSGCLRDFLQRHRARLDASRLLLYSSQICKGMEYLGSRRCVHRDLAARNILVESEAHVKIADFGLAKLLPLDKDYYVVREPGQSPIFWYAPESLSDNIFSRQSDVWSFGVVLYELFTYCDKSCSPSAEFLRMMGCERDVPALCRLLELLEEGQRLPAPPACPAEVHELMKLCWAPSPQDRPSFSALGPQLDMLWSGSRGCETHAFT
Tyk2 kinase activity on STAT4 in NK92 cells, sequence (P29597 whole entry): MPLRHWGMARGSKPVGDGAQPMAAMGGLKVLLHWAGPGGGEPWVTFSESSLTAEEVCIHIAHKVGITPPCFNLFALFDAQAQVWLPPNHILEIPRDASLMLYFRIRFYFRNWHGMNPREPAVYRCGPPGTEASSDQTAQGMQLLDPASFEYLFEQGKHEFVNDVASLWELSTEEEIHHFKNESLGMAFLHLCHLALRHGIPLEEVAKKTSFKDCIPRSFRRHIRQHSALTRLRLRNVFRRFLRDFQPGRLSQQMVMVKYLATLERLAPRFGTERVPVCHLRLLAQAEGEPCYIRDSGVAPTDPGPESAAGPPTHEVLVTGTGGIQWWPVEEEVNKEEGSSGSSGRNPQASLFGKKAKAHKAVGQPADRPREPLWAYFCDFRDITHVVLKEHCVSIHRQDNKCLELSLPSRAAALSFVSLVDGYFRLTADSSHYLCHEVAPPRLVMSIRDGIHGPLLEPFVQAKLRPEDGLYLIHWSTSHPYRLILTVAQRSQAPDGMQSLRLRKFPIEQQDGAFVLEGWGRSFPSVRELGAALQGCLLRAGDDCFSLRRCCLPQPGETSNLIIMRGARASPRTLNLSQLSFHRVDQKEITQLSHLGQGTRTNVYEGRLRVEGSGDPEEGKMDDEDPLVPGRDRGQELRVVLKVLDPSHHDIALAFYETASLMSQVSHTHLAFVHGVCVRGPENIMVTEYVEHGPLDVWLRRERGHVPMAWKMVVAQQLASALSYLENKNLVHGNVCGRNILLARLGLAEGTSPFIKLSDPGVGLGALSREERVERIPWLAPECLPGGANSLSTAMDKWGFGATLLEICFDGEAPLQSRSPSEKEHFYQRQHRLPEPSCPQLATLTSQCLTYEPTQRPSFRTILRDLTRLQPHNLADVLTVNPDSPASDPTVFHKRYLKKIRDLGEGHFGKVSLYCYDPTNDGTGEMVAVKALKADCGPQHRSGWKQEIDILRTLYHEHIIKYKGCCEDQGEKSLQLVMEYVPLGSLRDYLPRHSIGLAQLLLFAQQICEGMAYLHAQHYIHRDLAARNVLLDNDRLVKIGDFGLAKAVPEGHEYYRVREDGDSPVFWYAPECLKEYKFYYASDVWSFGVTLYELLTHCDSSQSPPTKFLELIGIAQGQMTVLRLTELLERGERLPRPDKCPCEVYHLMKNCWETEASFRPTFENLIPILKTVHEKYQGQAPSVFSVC

Row | SMILES | IC50 [1] [nM] | IC50 [2] [nM] | IC50 [3] [nM] | IC50 [4] [nM] | IC50 [5] [nM] | IC50 [6] [nM] | IC50 [7] [nM]
1 | CNC(=O)c1cc(-c2cn3nccc3c(N3C[C@@H](C)[C@@](C#N)(C4CC4)C3=O)n2)ccn1 [Example 252, 4-(4-((3R,4S)-3-cyano-3-cyclopropyl-4-methyl-2-oxopyrrolidin-1-yl)pyrazolo[1,5-a]pyrazin-6-yl)-N-methylpicolinamide trifluoroacetate] | > 100 | > 10000 | 5 to 20 | 100 to 1000 | 1000 to 5000 | 100 to 1000 | 100 to 1000
2 | C[C@@H]1CN(c2nc(-c3ccc(S(C)(=O)=O)nc3)cn3nccc23)C(=O)[C@]1(C#N)C1CC1 [Example 257, (3R,4S)-3-cyclopropyl-4-methyl-1-(6-(6-(methylsulfonyl)pyridin-3-yl)pyrazolo[1,5-a]pyrazin-4-yl)-2-oxopyrrolidine-3-carbonitrile trifluoroacetate] | > 100 | 5000 to 10000 | 5 to 20 | < 100 | 1000 to 5000 | 100 to 1000 | 100 to 1000
3 | C[C@@H]1CN(c2nc(-c3cncc(O)c3)cn3nccc23)C(=O)[C@]1(C#N)C1CC1 [Example 258, (3R,4S)-3-cyclopropyl-1-(6-(5-hydroxypyridin-3-yl)pyrazolo[1,5-a]pyrazin-4-yl)-4-methyl-2-oxopyrrolidine-3-carbonitrile trifluoroacetate] | > 100 | > 10000 | 5 to 20 | < 100 | 1000 to 5000 | 100 to 1000 | < 100
4 | C[C@@H]1CN(c2nc(-c3ccn(C)c(=O)c3)cn3nccc23)C(=O)[C@]1(C#N)C1CC1 [Example 261, (3R,4S)-3-cyclopropyl-4-methyl-1-(6-(1-methyl-2-oxo-1,2-dihydropyridin-4-yl)pyrazolo[1,5-a]pyrazin-4-yl)-2-oxopyrrolidine-3-carbonitrile trifluoroacetate] | > 100 | 1000 to 5000 | < 5 | 100 to 1000 | 1000 to 5000 | 100 to 1000 | < 100
5 | C[C@@H]1CN(c2nc(-c3ccc(O)nc3)cn3nccc23)C(=O)[C@]1(C#N)C1CC1 [Example 267, (3R,4S)-3-cyclopropyl-1-(6-(6-hydroxypyridin-3-yl)pyrazolo[1,5-a]pyrazin-4-yl)-4-methyl-2-oxopyrrolidine-3-carbonitrile trifluoroacetate] | 50 to 100 | 100 to 1000 | < 5 | < 100 | 100 to 1000 | 100 to 1000 | < 100

Other lines, results leading:

Row | IC50 [1] [nM] | IC50 [2] [nM] | IC50 [3] [nM] | IC50 [4] [nM] | IC50 [5] [nM] | IC50 [6] [nM] | IC50 [7] [nM] | SMILES
6 | 5 to 20 | 100 to 1000 | < 5 | < 100 | < 100 | < 100 | < 100 | C[C@@H]1CN(c2nc(-c3ccc4cnn(C)c4c3)cn3nccc23)C(=O)[C@]1(C#N)C1CC1 [Example 259, (3R,4S)-3-cyclopropyl-4-methyl-1-(6-(1-methyl-1H-indazol-6-yl)pyrazolo[1,5-a]pyrazin-4-yl)-2-oxopyrrolidine-3-carbonitrile trifluoroacetate]
7 | 20 to 50 | 100 to 1000 | < 5 | < 100 | < 100 | < 100 | < 100 | C[C@@H]1CN(c2nc(-c3ccc4nccn4c3)cn3nccc23)C(=O)[C@]1(C#N)C1CC1 [Example 263, (3R,4S)-3-cyclopropyl-1-(6-(imidazo[1,2-a]pyridin-6-yl)pyrazolo[1,5-a]pyrazin-4-yl)-4-methyl-2-oxopyrrolidine-3-carbonitrile trifluoroacetate]
8 | 50 to 100 | > 10000 | 5 to 20 | 100 to 1000 | > 10000 | 1000 to 5000 | 100 to 1000 | C[C@@H]1CN(c2nc(-c3cnc(N(C)C)nc3)cn3nccc23)C(=O)[C@]1(C#N)C1CC1 [Example 264, (3R,4S)-3-cyclopropyl-1-(6-(2-(dimethylamino)pyrimidin-5-yl)pyrazolo[1,5-a]pyrazin-4-yl)-4-methyl-2-oxopyrrolidine-3-carbonitrile trifluoroacetate]
